Target: α7 subunit of the nicotinic Acetylcholine Receptor (nAchR) (Homo sapiens, UniProt P36544)
Assay type: biochemical

Sequence of α7 subunit of the nicotinic Acetylcholine Receptor (nAchR) (P36544 23-502 limits assumed): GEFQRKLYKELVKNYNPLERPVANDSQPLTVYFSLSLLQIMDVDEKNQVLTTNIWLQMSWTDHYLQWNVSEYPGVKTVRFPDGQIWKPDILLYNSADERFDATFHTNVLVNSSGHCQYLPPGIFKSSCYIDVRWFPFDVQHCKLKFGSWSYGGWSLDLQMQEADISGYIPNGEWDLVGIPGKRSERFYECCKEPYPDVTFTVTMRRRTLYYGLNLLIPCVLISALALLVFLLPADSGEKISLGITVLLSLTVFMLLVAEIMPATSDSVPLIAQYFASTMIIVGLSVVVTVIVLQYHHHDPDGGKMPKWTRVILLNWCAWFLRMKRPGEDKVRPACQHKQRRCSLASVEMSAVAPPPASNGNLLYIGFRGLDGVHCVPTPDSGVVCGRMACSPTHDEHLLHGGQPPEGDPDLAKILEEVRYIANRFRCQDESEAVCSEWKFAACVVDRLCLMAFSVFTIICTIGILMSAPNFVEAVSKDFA

| Compound | signal on activation of the nAchR sensor | carbamoylcholine-induced signal after incubation with inhibitor |
| --- | --- | --- |
| C[N+](C)(C)CCOC(N)=O.[Cl-] [carbamoylcholinechloride, Carbamoylcholine chloride] | results in a signal | – |
| α-Bungarotoxin [α-BTX] | – | could not be generated the same way |
